Laboratory results taken from patent US20100234278A1, “PROPHYLACTIC AND/OR THERAPEUTIC AGENTS FOR PERIPHERAL NEUROPATHY” (priority 2006, published 2010).
“Also recorded” adds a separate entry of the source.

Columns and labels:
[1] = test system: streptozotocin-induced diabetes model rats; settings: streptozotocin-induced diabetes model rats (Bianchi et al., 2004); cited from earlier work
[2] = test system: DRG (dorsal root ganglia); settings: caused by addition of HIV envelop glycoprotein gp120 (Keswanai et al., 2004); cited from earlier work
sciatic nerve axons = experiment: Histopathological evaluation of sciatic nerves (toluidine blue staining); format: in vivo, ICR mice
Experimental: ICR mice (male) were purchased at 5 weeks of age and handled for 1 week before use in the experiment. As an anticancer agent, taxotere (Taxotere injection, Aventis Pharma, 1V 80 mg 2 mL) was used. […] The vehicle serving as a control (0 mg/kg) was prepared in the same manner using Tween-80 and physiological saline for iv administration. On the other hand, recombinant human EPO under the trade name Epogin (Chugai Pharmaceutical Co., Ltd., Japan) was adjusted using a solution (containing […] NaCl, 0.125% histidine-HCl and 0.005% Tween 80 in 10 mmol/L phosphate buffer (pH 6.0)) and administered at 720 U/head/week. The administration schedule was as follows: […], once a week for 3 weeks (3 times in total on days 0, 7 and 14), while the vehicle and EPO (720 U/head) were each given sc (into the dorsal neck region) 3 hours before taxotere treatment. Muscle tissue was peeled off to expose sciatic nerves. Under this state, a glutaraldehyde fixing solution (stored on ice immediately before use) was added to immerse all the sciatic nerves. After incubation for 10 minutes, the sciatic nerves were isolated and gently shaken for 1 hour in a shaker containing a glutaraldehyde fixing solution. The sciatic nerves were then embedded in a standard manner into a resin for electron microscopic examination. Toluidine blue-stained sections were prepared and evaluated for the degree of axonal degeneration at three levels: none (−), mild (+) and moderate (++).

[3] = test system: cisplatin-treated cancer patients; settings: EPO-treated group (Mangiameli et al., 2002); cited from earlier work
[4] = test system: taxotere-induced peripheral neuropathy model mice; experiment: Evaluation of neurological symptoms in taxotere-induced peripheral neuropathy model; format: in vivo, ICR mice
Experimental: ICR mice (male) were purchased at 5 weeks of age and handled for 1 week before use in the experiment.
As an anticancer agent, taxotere (Taxotere injection, Aventis Pharma, 1V 80 mg 2 mL) was used.
Using the attached solution and physiological saline, taxotere was adjusted to a volume of about 0.15 ml per 10 g mouse body weight (45 mg/kg iv, 90 mg/kg ip). The vehicle serving as a control (0 mg/kg) was prepared in the same manner using Tween-80 and physiological saline for iv administration.
On the other hand, recombinant human EPO under the trade name Epogin (Chugai Pharmaceutical Co., Ltd., Japan) was adjusted using a solution (containing […] NaCl, 0.125% histidine-HCl and 0.005% Tween 80 in 10 mmol/L phosphate buffer (pH 6.0)) and administered at 720 U/head/week. The administration schedule was as follows: taxotere was given at 0 or 45 mg/kg iv (via the tail vein) or at 90 mg/kg ip, once a week for 3 weeks (3 times in total on days 0, 7 and 14), while the vehicle and EPO (720 U/head) were each given sc (into the dorsal neck region) 3 hours before taxotere treatment.
Continuous treatment with taxotere will induce typical hind leg crossing in mice when hanged by their tails. If the symptoms reach an advanced stage, the same crossing response will also occur in the forelegs, thereby leading to dysbasia. Such a symptom was used as an indicator to evaluate the mice as follows: 0=no symptom; 0.5=abnormal movement without clear flexion; 1=flexion in one hind leg; 2=hind leg flexion or extension lasting for 2 seconds or longer; 3=dysbasia. Scoring was accomplished by blind evaluation of symptoms.

[5] = taxotere 90 mg/kg ip group (vehicle)

Question: With erythropoietin [EPO] as the compound, how does the Pain [1] read?
Answer: The Pain was “improves”.

Question: And the “Reduced nerve conduction velocity” value [1]?
Answer: Its value is “improves reduced nerve conduction velocity”.

Question: What about the “Cell loss in DRG” value [2] of the same compound?
Answer: The value was “prevents cell loss in DRG”.

Question: And the “Degeneration levels of sciatic nerve axons, range of the group” value (sciatic nerve axons; EPO group upon taxotere 90 mg/kg ip treatment)?
Answer: Its value is “± to mild (+)”.

Question: What about the “Effect on axonal degeneration of sciatic nerves, in words” value (sciatic nerve axons; EPO versus vehicle, taxotere 90 mg/kg ip) of the same compound?
Answer: Its value is “tendency to alleviate neuropathy; also recorded: tended to suppress exacerbation”.

Question: And the Neurological symptom scores [3]?
Answer: Its Neurological symptom scores is “significantly improved”.

Question: What about the “Effect on neurological symptoms” value ([4]; neuropathy induced by taxotere 90 mg/kg ip, EPO 720 U/head sc, after 10 days (FIG. 2)) of the same compound?
Answer: The value was “reduce significantly the neurological symptoms; also recorded: tended to suppress exacerbation of neurological symptoms”.

Question: For `CC(=O)O[C@@]12CO[C@@H]1C[C@H](O)[C@@]1(C)C(=O)[C@H](O)C3=C(C)[C@@H](OC(=O)[C@H](O)[C@@H](NC(=O)OC(C)(C)C)c4ccccc4)C[C@@](O)([C@@H](OC(=O)c4ccccc4)[C@H]21)C3(C)C` [taxotere], which “Histological change of sciatic nerve axons, in words” value (sciatic nerve axons; groups receiving taxotere) is on record?
Answer: The value was “diameter reduction and deformation of axons, which were indicative of clear axonal degeneration”.

Question: What about the “Degree of axonal degeneration: number of animals at mild (+)” value (sciatic nerve axons; [5]) of the same compound?
Answer: The value was 1.

Question: What about the “Degree of axonal degeneration: number of animals at moderate (++)” value (sciatic nerve axons; [5]) of the same compound?
Answer: Its value is 3.

Question: What about the “Degree of axonal degeneration: number of animals at ±” value (sciatic nerve axons; [5]) of the same compound?
Answer: Its value is 3.

Question: What about the “Time at which neurological symptoms developed after the treatment” value ([4]; taxotere 45 mg/kg iv once a week) of the same compound?
Answer: The value was “around 8 days”.

Question: What about the “Time at which neurological symptoms developed after the treatment” value ([4]; taxotere 90 mg/kg ip once a week) of the same compound?
Answer: Its value is “around 8 days”.
